Laboratory results reported in the NIST ThermoML archive (doi:10.1016/j.jct.2015.08.014).
Numbers after ± are expanded uncertainties.

Conditions: Liquid; for electrical conductivity: Alternating current cell with electrodes; for viscosity: Capillary tube (Ostwald / Ubbelohde) method; for mass density: Vibrating tube method

CCCC[N+]1(C)CCCC1.N#CN=C=[N-] [1-butyl-1-methylpyrrolidinium dicyanamide]
electrical conductivity [S/m], 100 kPa
Conditions	273.15 K	283.15 K	293.15 K	298.15 K	303.15 K	313.15 K	323.15 K
Frequency=0.0005 MHz	0.522 ± 0.005	0.786 ± 0.008	1.122 ± 0.011	1.315 ± 0.013	1.525 ± 0.015	1.99 ± 0.02	2.525 ± 0.025
Frequency=0.001 MHz	0.522 ± 0.005	0.786 ± 0.008	1.122 ± 0.011	1.316 ± 0.013	1.526 ± 0.015	2 ± 0.02	2.526 ± 0.025
Frequency=0.0015 MHz	0.522 ± 0.005	0.786 ± 0.008	1.123 ± 0.011	1.316 ± 0.013	1.526 ± 0.015	2 ± 0.02	2.527 ± 0.025
Frequency=0.002 MHz	0.522 ± 0.005	0.786 ± 0.008	1.123 ± 0.011	1.316 ± 0.013	1.527 ± 0.015	2 ± 0.02	2.528 ± 0.025
Frequency=0.0025 MHz	0.522 ± 0.005	0.786 ± 0.008	1.123 ± 0.011	1.317 ± 0.013	1.527 ± 0.015	2 ± 0.02	2.528 ± 0.025
Frequency=0.003 MHz	0.522 ± 0.005	0.786 ± 0.008	1.123 ± 0.011	1.317 ± 0.013	1.527 ± 0.015	2 ± 0.02	2.528 ± 0.025
Frequency=0.00347222 MHz	0.523 ± 0.005	0.786 ± 0.008	1.123 ± 0.011	1.317 ± 0.013	1.527 ± 0.015	2 ± 0.02	2.528 ± 0.025
Frequency=0.004 MHz	0.523 ± 0.005	0.786 ± 0.008	1.123 ± 0.011	1.317 ± 0.013	1.527 ± 0.015	2 ± 0.02	2.529 ± 0.025
Frequency=0.00446429 MHz	0.523 ± 0.005	0.786 ± 0.008	1.123 ± 0.011	1.317 ± 0.013	1.527 ± 0.015	2 ± 0.02	2.529 ± 0.025
Frequency=0.005 MHz	0.523 ± 0.005	0.786 ± 0.008	1.123 ± 0.011	1.317 ± 0.013	1.527 ± 0.015	2 ± 0.02	2.529 ± 0.025
Frequency=0.005454 MHz	0.523 ± 0.005	0.786 ± 0.008	1.123 ± 0.011	1.317 ± 0.013	1.527 ± 0.015	2 ± 0.02	2.529 ± 0.025
Frequency=0.006 MHz	0.523 ± 0.005	0.786 ± 0.008	1.123 ± 0.011	1.317 ± 0.013	1.527 ± 0.015	2 ± 0.02	2.529 ± 0.025
Frequency=0.00652174 MHz	0.523 ± 0.005	0.786 ± 0.008	1.123 ± 0.011	1.317 ± 0.013	1.527 ± 0.015	2 ± 0.02	2.529 ± 0.025
Frequency=0.00694444 MHz	0.523 ± 0.005	0.786 ± 0.008	1.123 ± 0.011	1.317 ± 0.013	1.527 ± 0.015	2 ± 0.02	2.529 ± 0.025
Frequency=0.0075 MHz	0.523 ± 0.005	0.786 ± 0.008	1.123 ± 0.011	1.318 ± 0.013	1.527 ± 0.015	2 ± 0.02	2.529 ± 0.025
Frequency=0.008 MHz	0.523 ± 0.005	0.786 ± 0.008	1.123 ± 0.011	1.318 ± 0.013	1.527 ± 0.015	2 ± 0.02	2.529 ± 0.025
Frequency=0.00857143 MHz	0.523 ± 0.005	0.786 ± 0.008	1.123 ± 0.011	1.318 ± 0.013	1.527 ± 0.015	2 ± 0.02	2.529 ± 0.025
Frequency=0.00892857 MHz	0.523 ± 0.005	0.786 ± 0.008	1.124 ± 0.011	1.318 ± 0.013	1.527 ± 0.015	2 ± 0.02	2.529 ± 0.025
Frequency=0.00961538 MHz	0.523 ± 0.005	0.786 ± 0.008	1.124 ± 0.011	1.318 ± 0.013	1.527 ± 0.015	2 ± 0.02	2.529 ± 0.025
Frequency=0.01 MHz	0.523 ± 0.005	0.786 ± 0.008	1.124 ± 0.011	1.318 ± 0.013	1.527 ± 0.015	2 ± 0.02	2.529 ± 0.025

101.33 kPa
Conditions	electrical conductivity [S/m]	mass density [kg/m3]	viscosity [mPa·s]
273.15 K	0.523 ± 0.005	1027.69 ± 8.3	93.95 ± 2.3
278.15 K	0.645 ± 0.007	1024.82 ± 8.2	74.27 ± 1.7
283.15 K	0.786 ± 0.008	1021.96 ± 8.2	59.6 ± 1.4
288.15 K	0.943 ± 0.009	1019.11 ± 8.2	48.6 ± 1.1
293.15 K	1.123 ± 0.011	1016.28 ± 8.2	40.25 ± 0.91
298.15 K	1.317 ± 0.013	1013.45 ± 8.1	33.71 ± 0.77
303.15 K	1.527 ± 0.015	1010.64 ± 8.1	28.53 ± 0.65
308.15 K	1.75 ± 0.018	1007.84 ± 8.1	24.53 ± 0.56
313.15 K	2 ± 0.02	1005.06 ± 8.1	21.07 ± 0.48
318.15 K	2.25 ± 0.023	1002.28 ± 8.1	18.37 ± 0.42
323.15 K	2.529 ± 0.025	999.525 ± 8	16.15 ± 0.37
328.15 K	–	996.781 ± 8	–
333.15 K	–	994.049 ± 8	–
